Measurements: patent publication US6737383B1, “Herbicidal oxadiazolidines” (priority 1999, dated 2004)

Assays:
[1] = test system: pigweed; assay: Test B pre/postemergence pigweed; format: in vivo, Amaranthus retroflexus
Method in brief: (§1)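 Test chemicals in a non-phytotoxic solvent mixture with surfactant were sprayed preemergence onto planted seeds and postemergence onto plants 2 to 18 cm tall (1- to 4-leaf stage). After twelve to sixteen days in a greenhouse, injury was visually rated against untreated controls from 0 (no effect) to 10 (complete control).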

[2] = test system: sugar beet; assay: Test B pre/postemergence sugar beet; format: in vivo, Beta vulgaris
Method in brief: as §1

[3] = test system: purple nutsedge; assay: Test B pre/postemergence purple nutsedge; format: in vivo, Cyperus rotundus
Method in brief: as §1

[4] = test system: rice; assay: Test B flood test rice; format: in vivo, Oryza sativa
Method in brief: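 Flood test on plants grown to the 2-leaf stage; treated plants kept in greenhouse twelve to sixteen days, then visually rated against controls on a 0 (no effect) to 10 (complete control) scale.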

[5] = test system: common ragweed; assay: Test D common ragweed; format: in vivo, Ambrosia elatior; settings: Preemergence, 0 to 100 scale
Method in brief: (§2)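 Greenhouse pots, seeds in sandy loam; compounds formulated in non-phytotoxic solvent with surfactant; preemergence treatments went on the soil surface within one day of planting. Injury rated visually 14 to 21 days after application on a 0 (none) to 100 (complete control) scale.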

[6] = test system: large crabgrass; assay: Test D large crabgrass; format: in vivo, Digitaria sanguinalis; settings: Preemergence, 0 to 100 scale
Method in brief: as §2

[7] = test system: winter wheat; assay: Test E winter wheat; format: in vivo, Triticum aestivum; settings: Postemergence; for Plant response rating, Wheat (winter): 0 to 100 scale
Method in brief: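 Visual evaluation versus untreated controls after about 21 to 28 days in the greenhouse. Compound was in a surfactant-containing non-phytotoxic solvent; postemergence plants were treated at the 1- to 4-leaf stage, grown in a 60:40 sandy loam and potting mix blend.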

[8] = test system: blackgrass; assay: Test E blackgrass; format: in vivo, Alopecurus myosuroides; settings: Preemergence
[9] = test system: green foxtail; assay: Test E green foxtail; format: in vivo, Setaria viridis; settings: Preemergence
[10] = test system: Italian ryegrass; assay: Test E Italian ryegrass; format: in vivo, Lolium multiflorum; settings: Preemergence
[11] = test system: winter wheat; assay: Test E winter wheat; format: in vivo, Triticum aestivum; settings: Preemergence
[12] = test system: wild oat; assay: Test E wild oat; format: in vivo, Avena fatua; settings: Preemergence
[13] = test system: winter barley; assay: Test E winter barley; format: in vivo, Hordeum vulgare; settings: Preemergence
[14] = Postemergence, Rate 125 g/ha, scale of 0 to 10 where 0 is no effect and 10 is complete control
[15] = Preemergence, Rate 31 g/ha, visual rating, scale 0 to 10 (0 no effect, 10 complete control)
[16] = Preemergence, Rate 62 g/ha, scale 0 to 10 (0 no effect, 10 complete control)
[17] = Preemergence, Rate 125 g/ha, 0 is no effect, 10 is complete control
[18] = Preemergence, Rate 250 g/ha, scale 0 to 10, 0 is no effect, 10 is complete control
[19] = Preemergence, Rate 500 g/ha, scale 0 to 10 (0 no effect, 10 complete control)
[20] = Rate 31 g/ha, Postemergence, scale 0 to 10
[21] = Rate 62 g/ha, Postemergence, scale of 0 to 10 where 0 is no effect and 10 is complete control
[22] = Rate 250 g/ha, Postemergence, scale 0 to 10, 0 is no effect, 10 is complete control
[23] = Rate 500 g/ha, Postemergence, scale 0 to 10
[24] = Rate 16 g/ha, 0 no injury, 100 complete control
[25] = Rate 32 g/ha, 0 no injury, 100 complete control
[26] = Rate 64 g/ha, 0 no injury, 100 complete control
[27] = Rate 125 g/ha, 0 no injury, 100 complete control
[28] = Rate 31 g/ha, 0 to 100 scale, 0 no effect, 100 complete control
[29] = Rate 62 g/ha, 0 to 100 scale, 0 no effect, 100 complete control
[30] = Rate 125 g/ha, 0 to 100 scale (0 no effect, 100 complete control)
[31] = Rate 500 g/ha, 0 to 100 scale where 0 is no effect and 100 is complete control

`C=CCn1c(=O)on(C(=O)N(c2ccc(F)cc2)C(C)C)c1=O` [Compound 146] was tested, and the “Redroot pigweed plant response rating” value [1, 14] was 6, the “Redroot pigweed plant response rating” value [1, 15] was 10 and the “Redroot pigweed plant response rating” value [1, 16] was 10. The “Redroot pigweed plant response rating (0 to 10 scale)” value [1, 17] was 10, the “Redroot pigweed plant response rating” value [1, 18] was 10 and the “Redroot pigweed plant response rating” value [1, 19] was 10. The “Redroot pigweed plant response rating” value [1, 20] was 0, the “Redroot pigweed plant response rating” value [1, 21] was 4 and the “Plant response rating, Redroot pigweed” value [1, 22] was 6. The “Redroot pigweed plant response rating” value [1, 23] was 8, the “Sugarbeets plant response rating” value [2, 14] was 3 and the “Sugarbeets plant response rating” value [2, 15] was 5. For the same compound, the “Sugarbeets plant response rating” value [2, 16] was 8, the “Sugarbeets plant response rating (0 to 10 scale)” value [2, 17] was 9 and the “Sugarbeets plant response rating” value [2, 18] was 10. The “Sugarbeets plant response rating” value [2, 19] was 10, the “Sugarbeets plant response rating” value [2, 21] was 1 and the “Plant response rating, Sugarbeets” value [2, 22] was 4. For the same compound, the “Sugarbeets plant response rating” value [2, 23] was 6, the “Nutsedge plant response rating” value [3, 14] was 0 and the “Nutsedge plant response rating” value [3, 15] was 0. The “Nutsedge plant response rating” value [3, 16] was 0, the “Nutsedge plant response rating (0 to 10 scale)” value [3, 17] was 0 and the “Nutsedge plant response rating” value [3, 18] was 0. For the same compound, the “Nutsedge plant response rating” value [3, 19] was 3, the “Nutsedge plant response rating” value [3, 20] was 0 and the “Nutsedge plant response rating” value [3, 21] was 0. The “Plant response rating, Nutsedge” value [3, 22] was 0, the “Nutsedge plant response rating” value [3, 23] was 6 and the “Rice plant response rating” value ([4]; Postemergence (flood test species), Rate 125 g/ha, scale of 0 to 10 where 0 is no effect and 10 is complete control) was 0. For the same compound, the “Rice plant response rating” value ([4]; Rate 31 g/ha, Postemergence section (flood test species), scale 0 to 10) was 0, the “Rice plant response rating” value ([4]; Rate 62 g/ha, Postemergence section, flood test species, scale of 0 to 10 where 0 is no effect and 10 is complete control) was 0 and the “Rice plant response rating” value ([4]; Rate 62 g/ha, headed Pre-emergence (flood test species), scale 0 to 10 (0 no effect, 10 complete control)) was 0. For the same compound, the “Rice plant response rating” value ([4]; Rate 125 g/ha, Pre-emergence, flood test species, scale 0 to 10 where 0 is no effect and 10 is complete control) was 0, the “Plant response rating, Rice” value ([4]; Rate 250 g/ha, Postemergence (flood test), scale 0 to 10, 0 is no effect, 10 is complete control) was 2 and the “Rice plant response rating” value ([4]; Rate 250 g/ha, Pre-emergence, flood-test species, scale 0 to 10, 0 is no effect, 10 is complete control) was 0. The “Plant response rating, Rice” value ([4]; Rate 500 g/ha, headed Pre-emergence (flood test species), scale 0 to 10 (0 no effect, 10 complete control)) was 0, the “Rice plant response rating” value ([4]; Rate 500 g/ha, listed under Postemergence (flood test species), scale 0 to 10) was 7 and the “Plant response rating, C. ragweed” value [5, 24] was 0. The “Plant response rating, C. ragweed” value [5, 25] was 0, the “Plant response rating, C. ragweed” value [5, 26] was 0 and the “Plant response rating, C. ragweed” value [5, 27] was 0. For the same compound, the “Plant response rating, C. ragweed” value ([5]; Rate 250 g/ha) was 60, the “Plant response rating, C. ragweed” value ([5]; Rate 500 g/ha) was 75 and the “Plant response rating Large crabgrass” value [6, 24] was 90. The “Plant response rating Large crabgrass” value [6, 25] was 100, the “Plant response rating Large crabgrass” value [6, 26] was 100 and the “Plant response rating Large crabgrass” value [6, 27] was 100. The “Plant response rating Large crabgrass” value ([6]; Rate 250 g/ha) was 100, the “Plant response rating Large crabgrass” value ([6]; Rate 500 g/ha) was 100 and the “Plant response rating, Wheat (winter)” value ([7]; Rate 31 g/ha, 0 no effect, 100 complete control) was 30. The “Plant response rating, Wheat (winter)” value ([7]; Rate 62 g/ha) was 20, the “Plant response rating, Wheat (winter)” value ([7]; Rate 125 g/ha) was 40 and the “Plant response rating, Wheat (winter)” value ([7]; Rate 500 g/ha, 0 no effect, 100 complete control) was 20. For the same compound, the “Wheat (winter) plant response rating” value ([7]; Rate 250 g/ha, 0 to 100 scale where 0 is no effect and 100 is complete control) was 60, the “Plant response rating, Blackgrass” value [8, 28] was 20 and the “Plant response rating, Blackgrass” value [8, 29] was 70. The “Plant response rating, Blackgrass” value [8, 30] was 85, the “Blackgrass plant response rating (0 to 100 scale)” value ([8]; Rate 250 g/ha) was 90 and the “Plant response rating, Blackgrass” value [8, 31] was 70. For the same compound, the “Plant response rating, Green foxtail” value [9, 28] was 50, the “Plant response rating, Green foxtail” value [9, 29] was 55 and the “Plant response rating, Green foxtail” value [9, 30] was 50. For the same compound, the “Green foxtail plant response rating (0 to 100 scale)” value ([9]; Rate 250 g/ha) was 65, the “Plant response rating, Green foxtail” value [9, 31] was 100 and the “Plant response rating, I. Ryegrass” value [10, 28] was 50. For the same compound, the “Plant response rating, I. Ryegrass” value [10, 29] was 40, the “Plant response rating, I. Ryegrass” value [10, 30] was 50 and the “I. Ryegrass plant response rating (0 to 100 scale)” value ([10]; Rate 250 g/ha) was 60. The “Plant response rating, I. Ryegrass” value [10, 31] was 90, the “Plant response rating, Wheat (winter)” value [11, 28] was 20 and the “Plant response rating, Wheat (winter)” value [11, 29] was 0. For the same compound, the “Plant response rating, Wheat (winter)” value [11, 30] was 10, the “Wheat (winter) plant response rating (0 to 100 scale)” value ([11]; Rate 250 g/ha) was 0 and the “Plant response rating, Wheat (winter)” value [11, 31] was 100. For the same compound, the “Plant response rating, Wild oat” value [12, 28] was 40, the “Plant response rating, Wild oat” value [12, 29] was 25 and the “Plant response rating, Wild oat” value [12, 30] was 30. For the same compound, the “Wild oat plant response rating (0 to 100 scale)” value ([12]; Rate 250 g/ha) was 50, the “Plant response rating, Wild oat” value [12, 31] was 85 and the “Plant response rating, Barley (winter)” value [13, 28] was 20. The “Plant response rating, Barley (winter)” value [13, 29] was 10, the “Plant response rating, Barley (winter)” value [13, 30] was 10 and the “Barley (winter) plant response rating (0 to 100 scale)” value ([13]; Rate 250 g/ha) was 10. For the same compound, the “Plant response rating, Barley (winter)” value [13, 31] was 95.
